What was measured:
Format in all cases: in vivo
[1] = test system: wheat (Triticum aestivum var. Lew); experiment: Preemergence herbicidal activity, wheat; conditions: Rate of Application 0.3 Kg/Ha, examined after 12-17 days
Experimental: (§1) The benzofused heterocyclic compounds of this invention were tested for pre- and postemergence herbicidal activity using a variety of crops and weeds. The test plants included soybean (Glycine max var. Winchester), field corn (Zea mays var. Pioneer 3732), wheat (Triticum aestivum var. Lew), morningglory (Ipomea lacunosa or Ipomea hederacea), velvetleaf (Abutilon theophrasti), green foxtail (Setaria viridis), Johnsongrass (Sorghum halepense), blackgrass (Aloepecurus myosuroides), common chickweed (Stellaria media), and common cocklebur (Xanthium strumarium L.).
(§2) For preemergence testing, two disposable fiber flats (8 cm×15 cm×25 cm) for each rate of application of each candidate herbicide were filled to an approximate depth of 6.5 cm with steam-sterilized sandy loam soil. The soil was leveled and impressed with a template to provide five evenly spaced furrows 13 cm long and 0.5 cm deep in each flat. Seeds of soybean, wheat, corn, green foxtail, and johnsongrass were planted in the furrows of the first flat, and seeds of velvetleaf, morningglory, common chickweed, cocklebur, and blackgrass were planted in the furrows of the second flat. The five-row template was employed to firmly press the seeds into place. A topping soil of equal portions of sand and sandy loam soil was placed uniformly on top of each flat to a depth of approximately 0.5 cm. Flats for postemergence testing were prepared in the same manner except that they were planted 9-14 days prior to the preemergence flats and were placed in a greenhouse and watered, thus allowing the seeds to germinate and the foliage to develop.
(§3) In both pre- and postemergence tests, a stock solution of the candidate herbicide was prepared by dissolving 0.27 g of the compound in 20 mL of water/acetone (50/50) containing 0.5% v/v sorbitan monolaurate. For an application rate of 3000 g/ha of herbicide a 10 mL portion of the stock solution was diluted with water/acetone (50/50) to 45 mL.
(§4) The preemergence flats were initially subjected to a light water spray. The four flats were placed two by two along a conveyor belt (i.e., the two preemergence followed by the two postemergence flats). The conveyor belt fed under a spray nozzle mounted about ten inches above the post-emergent foliage. The preemergent flats were elevated on the belt so that the soil surface was at the same level below the spray nozzle as the foliage canopy of the postemergent plants. The spray of herbicidal solution was commenced and once stabilized, the flats were passed under the spray at a speed to receive a coverage equivalent of 100 L/ha. At this coverage the application rates are those shown in the above table for the individual herbicidal solutions. The preemergence flats were watered immediately thereafter, placed in the greenhouse and watered regularly at the soil surface. The postemergence flats were immediately placed in the green-house and not watered until 24 hours after treatment with the test solution. Thereafter they were regularly watered at ground level. After 12-17 days the plants were examined and the phytotoxicity data were recorded.
(§5) Phytotoxicity data were taken as percent control. Percent control was determined by a method similar to the 0 to 100 rating system disclosed in “Research Methods in Weed Science,” 2nd ed., B. Truelove, Ed.; Southern Weed Science Society; Auburn University, Auburn, Ala., 1977.

[2] = test system: velvetleaf (Abutilon theophrasti); experiment: Preemergence herbicidal activity, velvetleaf; conditions: Rate of Application 0.3 Kg/Ha, examined after 12-17 days
Experimental: as §1, §2, §3, §4, §5

[3] = test system: common cocklebur (Xanthium strumarium L.); experiment: Preemergence herbicidal activity, cocklebur; conditions: Rate of Application 0.3 Kg/Ha, examined after 12-17 days
Experimental: as §1, §2, §3, §4, §5

[4] = test system: velvetleaf (Abutilon theophrasti); experiment: Postemergence herbicidal activity, velvetleaf; conditions: rate of application 0.3 Kg/Ha, rated after 12-17 days
Experimental: as §1, §2, §3, §4, §5

[5] = test system: field corn (Zea mays var. Pioneer 3732); experiment: Postemergence herbicidal activity, corn; conditions: rate of application 0.3 Kg/Ha, rated after 12-17 days
Experimental: as §1, §2, §3, §4, §5

[6] = test system: green foxtail (Setaria viridis); experiment: Postemergence herbicidal activity, green foxtail; conditions: rate of application 0.3 Kg/Ha, rated after 12-17 days
Experimental: as §1, §2, §3, §4, §5

[7] = test system: morningglory (Ipomea lacunosa or Ipomea hederacea); experiment: Preemergence herbicidal activity, morningglory; conditions: Rate of Application 0.3 Kg/Ha, examined after 12-17 days
Experimental: as §1, §2, §3, §4, §5

[8] = test system: field corn (Zea mays var. Pioneer 3732); experiment: Preemergence herbicidal activity, corn; conditions: Rate of Application 0.3 Kg/Ha, examined after 12-17 days
Experimental: as §1, §2, §3, §4, §5

[9] = test system: Johnsongrass (Sorghum halepense); experiment: Postemergence herbicidal activity, johnsongrass; conditions: rate of application 0.3 Kg/Ha, rated after 12-17 days
Experimental: as §1, §2, §3, §4, §5

[10] = test system: common chickweed (Stellaria media); experiment: Postemergence herbicidal activity, chickweed; conditions: rate of application 0.3 Kg/Ha, rated after 12-17 days
Experimental: as §1, §2, §3, §4, §5

[11] = test system: morningglory (Ipomea lacunosa or Ipomea hederacea); experiment: Postemergence herbicidal activity, morningglory; conditions: rate of application 0.3 Kg/Ha, rated after 12-17 days
Experimental: as §1, §2, §3, §4, §5

[12] = test system: soybean (Glycine max var. Winchester); experiment: Preemergence herbicidal activity, soybean; conditions: Rate of Application 0.3 Kg/Ha, examined after 12-17 days
Experimental: as §1, §2, §3, §4, §5

[13] = test system: wheat (Triticum aestivum var. Lew); experiment: Postemergence herbicidal activity, wheat; conditions: rate of application 0.3 Kg/Ha, rated after 12-17 days
Experimental: as §1, §2, §3, §4, §5

[14] = test system: green foxtail (Setaria viridis); experiment: Preemergence herbicidal activity, green foxtail; conditions: Rate of Application 0.3 Kg/Ha, examined after 12-17 days
Experimental: as §1, §2, §3, §4, §5

[15] = test system: soybean (Glycine max var. Winchester); experiment: Postemergence herbicidal activity, soybean; conditions: rate of application 0.3 Kg/Ha, rated after 12-17 days
Experimental: as §1, §2, §3, §4, §5

[16] = test system: Johnsongrass (Sorghum halepense); experiment: Preemergence herbicidal activity, johnsongrass; conditions: Rate of Application 0.3 Kg/Ha, examined after 12-17 days
Experimental: as §1, §2, §3, §4, §5

[17] = test system: common chickweed (Stellaria media); experiment: Preemergence herbicidal activity, chickweed; conditions: Rate of Application 0.3 Kg/Ha, examined after 12-17 days
Experimental: as §1, §2, §3, §4, §5

[18] = test system: blackgrass (Aloepecurus myosuroides); experiment: Preemergence herbicidal activity, blackgrass; conditions: Alopecurus myosuroides, pre-emergence, Rate of Application 0.3 Kg/Ha, examined after 12-17 days, read-out: PREEMERGENCE HERBICIDAL ACTIVITY (% CONTROL) ALOMY
Experimental: as §1, §2, §3, §4, §5

## CCOC(=O)c1cc2c(Cl)ccc(-n3c(=O)cc(C(F)(F)F)n(C)c3=O)c2o1 [Compound 268]
[1]
  PREEMERGENCE HERBICIDAL ACTIVITY (% CONTROL) WHT: 30%
[2]
  PREEMERGENCE HERBICIDAL ACTIVITY (% CONTROL) ABUTH: 100%
[3]
  PREEMERGENCE HERBICIDAL ACTIVITY (% CONTROL) XANPE: 0%
[4]
  Postemergence herbicidal activity (% control) ABUTH: 50%
[5]
  Postemergence herbicidal activity (% control) CRN: 60%
[6]
  Postemergence herbicidal activity (% control) SETVI: 70%
[7]
  PREEMERGENCE HERBICIDAL ACTIVITY (% CONTROL) IPOSS: 95%
[8]
  PREEMERGENCE HERBICIDAL ACTIVITY (% CONTROL) CRN: 50%
[9]
  Postemergence herbicidal activity (% control) SORHA: 40%
[10]
  Postemergence herbicidal activity (% control) STEME: 20%
[11]
  Postemergence herbicidal activity (% control) IPOSS: 90%
[12]
  PREEMERGENCE HERBICIDAL ACTIVITY (% CONTROL) SOY: 30%
[13]
  Postemergence herbicidal activity (% control) WHT: 40%
[14]
  PREEMERGENCE HERBICIDAL ACTIVITY (% CONTROL) SETVI: 60%
[15]
  Postemergence herbicidal activity (% control) SOY: 70%
[16]
  PREEMERGENCE HERBICIDAL ACTIVITY (% CONTROL) SORHA: 60%
[17]
  PREEMERGENCE HERBICIDAL ACTIVITY (% CONTROL) STEME: 20%

## CC(=O)OC(C)(C)c1nc2c(-n3c(=O)cc(C(F)(F)F)n(C)c3=O)c(F)cc(Br)c2o1 [Compound 104, 1-METHYL-6-TRIFLUOROMETHYL-3-[7-BROMO-5-FLUORO-2-(2-METHYLCARBONYLOXYPROP-2-YL)BENZOXAZOL-4-YL]-2,4(1 H,3H)-PYRIMIDINEDIONE]
[18]
  inhibition at 300 g/ha: 100%
[1]; Triticum aestivum, pre-emergence, read-out: PREEMERGENCE HERBICIDAL ACTIVITY (% CONTROL) WHT
  inhibition at 300 g/ha: 100%
[2]; Abutilon theophrasti, pre-emergence, read-out: PREEMERGENCE HERBICIDAL ACTIVITY (% CONTROL) ABUTH
  inhibition at 300 g/ha: 100%
[3]; Xanthium strumarium, pre-emergence, read-out: PREEMERGENCE HERBICIDAL ACTIVITY (% CONTROL) XANPE
  inhibition at 300 g/ha: 100%
[4]; Abutilon theophrasti, post-emergence, read-out: Postemergence herbicidal activity (% control) ABUTH
  inhibition at 300 g/ha: 100%
[5]; Zea mays, post-emergence, read-out: Postemergence herbicidal activity (% control) CRN
  inhibition at 300 g/ha: 100%
[6]; Setaria viridis, post-emergence, read-out: Postemergence herbicidal activity (% control) SETVI
  inhibition at 300 g/ha: 100%
[7]; Ipomoea, pre-emergence, read-out: PREEMERGENCE HERBICIDAL ACTIVITY (% CONTROL) IPOSS
  inhibition at 300 g/ha: 100%
[8]; Zea mays, pre-emergence, read-out: PREEMERGENCE HERBICIDAL ACTIVITY (% CONTROL) CRN
  inhibition at 300 g/ha: 100%
[9]; Sorghum halepense, post-emergence, read-out: Postemergence herbicidal activity (% control) SORHA
  inhibition at 300 g/ha: 100%
[11]; Ipomoea, post-emergence, read-out: Postemergence herbicidal activity (% control) IPOSS
  inhibition at 300 g/ha: 100%
[12]; Glycine max, pre-emergence, read-out: PREEMERGENCE HERBICIDAL ACTIVITY (% CONTROL) SOY
  inhibition at 300 g/ha: 100%
[13]; Triticum aestivum, post-emergence, read-out: Postemergence herbicidal activity (% control) WHT
  inhibition at 300 g/ha: 100%
[14]; Setaria viridis, pre-emergence, read-out: PREEMERGENCE HERBICIDAL ACTIVITY (% CONTROL) SETVI
  inhibition at 300 g/ha: 100%
[15]; Glycine max, post-emergence, read-out: Postemergence herbicidal activity (% control) SOY
  inhibition at 300 g/ha: 100%
[16]; Sorghum halepense, pre-emergence, read-out: PREEMERGENCE HERBICIDAL ACTIVITY (% CONTROL) SORHA
  inhibition at 300 g/ha: 100%

— patent US6352958B1, “Cycloimido-substituted benzofused heterocyclic herbicides” (FMC Corporation, priority 1997, dated 2002)
